Test results taken from PMC6611404 (Frontiers in Aging Neuroscience, 2019).
Several values for one entry are separate records, joined by “and”; a condition that tells them apart may be missing. Equal entries are not always repeated. Where two headings read alike, the source gives them in different places.

What was measured:
[1] = target: T1, AChE from human erythrocytes (Homo sapiens, UniProt P22303); test: biochemical; conditions: for inhibition at 1 µM: read-out: (h)AChE % inhibition at 10^−6M
T1 construct: AChE from human erythrocytes; purchased Sigma Aldrich; host or cells: human erythrocytes (natural source)
Protocol: Acetylthiocholine iodide and 5,5-dithiobis-(2-nitrobenzoic) acid (DTNB) were purchased from Sigma Aldrich. AChE from human erythrocytes (buffered aqueous solution, ≥500 units/mg protein (BCA), Sigma Aldrich) was diluted in 20 mM HEPES buffer pH 8, 0.1% Triton X-100 such as to have enzyme solution with 0.25 unit/mL enzyme activity. In the procedure, 100 μL of 0.3 mM DTNB dissolved in phosphate buffer pH 7.4 was added into the 96-well plate followed by 50 μL of test compound solution and 50 μL of enzyme (0.05 U final). After 5 min of preincubation at 25°C, the reaction was then initiated by the injection of 50 μL of 10 mM acetylthiocholine iodide solution. […] Assays were performed with a blank containing all components except acetylthiocholine, in order to account for non-enzymatic reaction. The reaction slopes were compared and the percent inhibition due to the presence of test compounds was calculated by the following expression: 100 − (vi/v0 × 100) where vi is the rate calculated in the presence of inhibitor and v0 is the enzyme activity.

human 5-HT6 receptors = target: T2, human 5-HT6 receptors (Homo sapiens, UniProt P50406); test: [3H]-LSD competition binding on membranes of HEK-293 cells expressing human 5-HT6 receptors; conditions: for inhibition / inhibition at 0.0025 µM: 2.5 nM [3H]-LSD; for Ki: (h)5-HT6R Ki, n = 3, Ki ± SD
T2 construct: purchased Perkin Elmer RBHS6M; host or cells: HEK-293 cells, transient expression (membranes)
Protocol: Drugs were evaluated through their possibility to compete for the binding of [^3H]-LSD on membranes of HEK-293 cells transiently expressing the human 5-HT6 receptors (ref. RBHS6M, Perkin Elmer). […] At the end of the incubation, the homogenates were then filtered through Whatman GF/C filters and washed five times with ice-cold 25 mM Tris-HCl buffer. Non-specific binding was evaluated in the presence of 100 μM serotonin. Radioactivity associated to proteins was then quantified and expressed as the percentage of inhibition of the drugs under study.
(§1) For some of these compounds, affinity constants were calculated from five-point inhibition curves using the GraphPad Prism 6 software and expressed as Ki ± SD.

Human 5-HT4R = target: T3, Human 5-HT4R (Homo sapiens, UniProt Q13639); test: [3H]-GR113808 competition binding on 5-HT4(b) membrane preparations; conditions: for inhibition / inhibition at 0.0002 µM: 0.2 nM [3H]-GR113808; for Ki: (h)5-HT4R Ki, n = 3, Ki ± SD
T3 construct: purchased Eurofins HTS110M
Protocol: At the end of the incubation, homogenates were filtered through Whatman GF/C filters (Alpha Biotech) presoaked with 0.5% polyethylenimine using a Brandel cell harvester. Filters were subsequently washed three times with 1 mL of ice-cold 25 mM Tris buffer (pH 7.4, 4°C). Non-specific binding was evaluated in parallel in the presence of 30 μM serotonin.
as §1

[2] = read-out: (h)5-HT6R % inhibition at 10^−6M, 10^−6M
[3] = read-out: (h)5-HT6R % inhibition at 10^−8M, 10^−8M
[4] = read-out: (h)5-HT4R % inhibition at 10^−6M, 10^−6M
[5] = read-out: (h)5-HT4R % inhibition at 10^−8M, 10^−8M

T1 sequence (P22303 other isoform, or with tags, fused parts or gaps): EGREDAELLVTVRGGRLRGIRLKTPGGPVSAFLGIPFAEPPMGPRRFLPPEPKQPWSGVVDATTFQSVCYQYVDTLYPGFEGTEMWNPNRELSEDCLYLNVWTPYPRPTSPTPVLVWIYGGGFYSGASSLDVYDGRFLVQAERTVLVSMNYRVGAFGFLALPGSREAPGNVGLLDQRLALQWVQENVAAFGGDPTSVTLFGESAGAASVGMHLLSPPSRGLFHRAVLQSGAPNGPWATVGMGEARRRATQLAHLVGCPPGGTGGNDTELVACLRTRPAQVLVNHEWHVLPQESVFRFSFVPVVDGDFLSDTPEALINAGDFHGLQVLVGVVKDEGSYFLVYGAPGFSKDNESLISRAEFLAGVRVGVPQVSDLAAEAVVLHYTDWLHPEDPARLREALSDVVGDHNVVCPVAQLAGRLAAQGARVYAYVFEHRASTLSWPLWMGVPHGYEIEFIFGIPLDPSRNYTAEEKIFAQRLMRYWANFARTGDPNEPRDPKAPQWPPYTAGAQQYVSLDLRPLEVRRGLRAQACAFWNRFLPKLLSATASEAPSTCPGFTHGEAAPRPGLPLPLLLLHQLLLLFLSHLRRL
T3 sequence (Q13639 whole entry): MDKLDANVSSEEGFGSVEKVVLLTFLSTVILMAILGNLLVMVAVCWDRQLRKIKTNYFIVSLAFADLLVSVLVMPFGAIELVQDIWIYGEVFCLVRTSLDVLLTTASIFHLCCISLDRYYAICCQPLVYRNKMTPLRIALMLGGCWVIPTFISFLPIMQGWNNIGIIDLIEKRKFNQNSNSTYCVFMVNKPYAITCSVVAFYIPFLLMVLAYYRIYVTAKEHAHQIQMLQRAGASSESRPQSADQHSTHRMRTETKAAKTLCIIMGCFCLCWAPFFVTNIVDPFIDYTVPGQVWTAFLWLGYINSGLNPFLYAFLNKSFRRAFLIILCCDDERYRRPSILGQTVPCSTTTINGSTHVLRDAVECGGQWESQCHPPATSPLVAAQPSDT
T2 sequence (P50406 whole entry): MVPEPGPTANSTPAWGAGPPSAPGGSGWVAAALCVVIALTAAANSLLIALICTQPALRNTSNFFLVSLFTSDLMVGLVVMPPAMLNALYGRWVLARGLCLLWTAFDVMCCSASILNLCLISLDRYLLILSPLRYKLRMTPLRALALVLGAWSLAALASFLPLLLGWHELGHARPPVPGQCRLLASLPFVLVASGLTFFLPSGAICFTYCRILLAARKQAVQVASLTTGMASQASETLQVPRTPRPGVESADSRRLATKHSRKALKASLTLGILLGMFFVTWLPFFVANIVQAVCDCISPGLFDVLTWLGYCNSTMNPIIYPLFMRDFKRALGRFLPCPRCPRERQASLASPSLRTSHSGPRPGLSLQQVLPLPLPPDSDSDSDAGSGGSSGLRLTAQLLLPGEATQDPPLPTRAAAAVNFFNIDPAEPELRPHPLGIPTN

Row | Structure (SMILES) | inhibition at 1 µM [1] [%] | affinity for 5-HT6R (in words) (human 5-HT6 receptors) | inhibition (human 5-HT6 receptors; [2]) [%] | inhibition (human 5-HT6 receptors; [3]) [%] | inhibition (Human 5-HT4R; [4]) [%] | inhibition (Human 5-HT4R; [5]) [%] | IC50 ([1]; n = 2, read-out: (h)AChE IC50) [nM] | Ki (human 5-HT6 receptors) [nM] | inhibitory effect towards AChE (in words) [1] | inhibition at 0.0025 µM (human 5-HT6 receptors; [2]) [%] | IC50 ([1]; (h)AChE IC50, n = 2) [nM] | Ki (Human 5-HT4R) | inhibition at 0.0002 µM (Human 5-HT4R; [5]) [%]
1 | COc1cc(N)c(Cl)cc1C(=O)CCC1CCN(Cc2ccccc2)CC1 [5a] | 98 | devoid of such an activity | 29 | 0 | 102 | 41 | – | – | – | – | – | – | –
2 | COc1cc(N)c(Cl)cc1C(=O)CCC1CCN(Cc2ccccc2Cl)CC1 [5b, 1-(4-Amino-5-chloro-2-methoxyphenyl)-3-(1-(2-chlorobenzyl)piperidin-4-yl)propan-1-one] | 91 | – | – | 27 | 94 | 16 | 156 ± 71 | 110 ± 19 | – | – | – | – | –
3 | COc1cc(N)c(Cl)cc1C(=O)CCC1CCN(Cc2ccccc2Br)CC1 [5c, 1-(4-Amino-5-chloro-2-methoxyphenyl)-3-(1-(2-bromobenzyl)piperidin-4-yl)propan-1-one] | 80 | – | 65 | 34 | 96 | 17 | 317 ± 115 | – | – | – | – | – | –
4 | COc1cc(N)c(Cl)cc1C(=O)CCC1CCN(Cc2ccccc2F)CC1 [5d, 1-(4-Amino-5-chloro-2-methoxyphenyl)-3-(1-(2-fluorobenzyl)piperidin-4-yl)propan-1-one] | 96 | – | 68 | 21 | 94 | 10 | 102 ± 65.4 | – | – | – | – | – | –
5 | COc1cc(N)c(Cl)cc1C(=O)CCC1CCN(Cc2ccccc2I)CC1 [5e, 1-(4-Amino-5-chloro-2-methoxyphenyl)-3-(1-(2-iodobenzyl)piperidin-4-yl)propan-1-one] | 37 | displayed affinity for 5-HT6R | 81 | 25 | 96 | 1 | – | 186 ± 71 | devoid of inhibitory effect towards AChE | – | – | – | –
6 | COc1cc(N)c(Cl)cc1C(=O)CCC1CCN(Cc2ccccc2C)CC1 [5f, 1-(4-Amino-5-chloro-2-methoxyphenyl)-3-(1-(2-methylbenzyl)piperidin-4-yl)propan-1-one] | 87 | – | – | 24 | 98 | 9 | 225 ± 57.3 | 270 ± 14 | – | > 70 | – | – | –
7 | COc1cc(N)c(Cl)cc1C(=O)CCC1CCN(Cc2ccccc2OCc2ccccc2)CC1 [5g, 1-(4-Amino-5-chloro-2-methoxyphenyl)-3-(1-(2-benzyloxybenzyl)piperidin-4-yl)propan-1-one] | 33 | – | 18 | 0 | 70 | 7 | – | – | – | – | – | – | –
8 | COc1cc(N)c(Cl)cc1C(=O)CCC1CCN(Cc2ccccc2O)CC1 [5h, 1-(4-Amino-5-chloro-2-methoxyphenyl)-3-(1-(2-hydroxybenzyl)piperidin-4-yl)propan-1-one] | 94 | – | 24 | 0 | 98 | 10 | 57.4 ± 9.4 | – | – | – | – | – | –
9 | COc1cc(N)c(Cl)cc1C(=O)CCC1CCN(Cc2cccc(Br)c2)CC1 [5i, 1-(4-Amino-5-chloro-2-methoxyphenyl)-3-(1-(3-bromobenzyl)piperidin-4-yl)propan-1-one] | 44 | displayed affinity for 5-HT6R | 77 | 7 | 94 | 5 | – | 169 ± 44 | devoid of inhibitory effect towards AChE | – | – | – | –
10 | COc1cc(N)c(Cl)cc1C(=O)CCC1CCN(Cc2cccc(F)c2)CC1 [5j, 1-(4-Amino-5-chloro-2-methoxyphenyl)-3-(1-(3-fluorobenzyl)piperidin-4-yl)propan-1-one] | 97 | – | 59 | 9 | 98 | 12 | 91 ± 53.8 | – | – | – | – | – | –
11 | COc1cc(N)c(Cl)cc1C(=O)CCC1CCN(Cc2cccc(C)c2)CC1 [5k, 1-(4-Amino-5-chloro-2-methoxyphenyl)-3-(1-(3-methylbenzyl)piperidin-4-yl)propan-1-one] | 89 | – | – | 9 | 98 | – | – | 230 ± 49 | – | > 70 | 161 ± 43 | 168 ± 15 nM | ≥ 25
12 | COc1cccc(CN2CCC(CCC(=O)c3cc(Cl)c(N)cc3OC)CC2)c1 [5l, 1-(4-Amino-5-chloro-2-methoxyphenyl)-3-(1-(3-methoxybenzyl)piperidin-4-yl)propan-1-one] | 35 | displayed affinity for 5-HT6R | 78 | 6 | 94 | 9 | – | 265 ± 64 | devoid of inhibitory effect towards AChE | – | – | – | –
13 | COc1cc(N)c(Cl)cc1C(=O)CCC1CCN(Cc2cccc(N)c2)CC1 [5m, 1-(4-Amino-5-chloro-2-methoxyphenyl)-3-(1-(3-aminobenzyl)piperidin-4-yl)propan-1-one] | 93 | – | – | 31 | 100 | – | 41 ± 5 | 1150 ± 559 | – | > 70 | – | 43 nM and 42.5 nM | ≥ 25
14 | COc1cc(N)c(Cl)cc1C(=O)CCC1CCN(Cc2cccc([N+](=O)[O-])c2)CC1 [5n, 1-(4-Amino-5-chloro-2-methoxyphenyl)-3-(1-(3-nitrobenzyl)piperidin-4-yl)propan-1-one] | 64 | – | 51 | 0 | 90 | 3 | – | – | – | – | – | – | –
15 | COc1cc(N)c(Cl)cc1C(=O)CCC1CCN(Cc2ccc(F)cc2)CC1 [5o, 1-(4-Amino-5-chloro-2-methoxyphenyl)-3-(1-(4-fluorobenzyl)piperidin-4-yl)propan-1-one] | 92 | – | 58 | 13 | 102 | 19 | 78.4 ± 12.1 | – | – | – | – | – | –
16 | COc1cc(N)c(Cl)cc1C(=O)CCC1CCN(Cc2ccc(O)cc2)CC1 [5p, 1-(4-Amino-5-chloro-2-methoxyphenyl)-3-(1-(4-hydroxybenzyl)piperidin-4-yl)propan-1-one] | 98 | – | 24 | 0 | 100 | 23 | 6 ± 0.4 | – | – | – | – | – | –
17 | COc1cc(N)c(Cl)cc1C(=O)CCC1CCN(Cc2ccc(C)cc2)CC1 [5q, 1-(4-Amino-5-chloro-2-methoxyphenyl)-3-(1-(4-methylbenzyl)piperidin-4-yl)propan-1-one] | 87 | – | 21 | 21 | 100 | 24 | 450 | – | – | – | – | – | –
18 | COc1cc(N)c(Cl)cc1C(=O)CCC1CCN(Cc2cc(NC(C)=O)ccc2Br)CC1 [5r, N-(3-((4-(3-(4-Amino-5-chloro-2-methoxyphenyl)-3-oxopropyl)piperidin-1-yl)methyl)-4-bromophenyl) acetamide] | 13 | – | 35 | 7 | 96 | 6 | – | – | – | – | – | – | –
